Measured values reported in US6444694B1, “Styryl benzimidazole derivatives” (Wyeth, priority 1995, dated 2002).
Where a name gives a salt, the structure may show the parent alone. Read-outs that look alike come from different tables or passages of the source.

Assays:
[1] = tested on: isolated porcine aortic smooth muscle cells; test: Porcine aortic smooth muscle cell antiproliferation (3H thymidine incorporation); type: cell-based; conditions: 24-36 hours
Procedure: The ability of the compounds of the present invention to inhibit smooth muscle cell proliferation was established using isolated porcine aortic smooth muscle cells in a modification of the procedure of Castellot et al. J. Biol. Chem 257(19) 11256 (1982), as follows:
Fresh porcine aortas, scrupulously cleansed of fatty tissue, are rinsed in sterile phosphate-buffered saline with 2% antibiotic-antimycotic (100×) liquid (10,000 units of penicillin (base), 10,000 μg of streptomycin (base), and 25 μg of amphotericin B/mL utilizing penicillin G (sodium salt), streptomycin sulfate, and amphotericin B as Fungizone® in 0.85% saline, available from Gibco Laboratories, Grand Island Biological Co., Grand Island, N.Y.). The tissue is then digested in 10-15 mL of an enzyme solution containing collagenase type I, 165 U/mL; elastase type III, 15 U/mL; BSA, 2 mg/mL; and soybean trypsin inhibitor, 0.375 mg/mL, followed by incubation at 37° C. under 5% CO2 atmosphere for 10 to 15 minutes. After this treatment, the outer surface adventitia is removed by peeling with a forceps. The aorta is then longitudinally cut and laid open and the endothelial layer is removed by scraping.
The medial layer of cells is rinsed in the enzyme solution, and placed in a new 100 mm dish with 10 mL of enzyme solution. The medial layer of cells is minced using a fine pair of scissors and digested for 2-3 hours at 37° C. in 30 mL of fresh enzyme solution. After digestion, the medial tissue is homogenized using a sterile Pasteur pipette with a fire polished tip or an Eppendorf pipetter with a 200-1000 μL sterile pipette tip. The suspension is then centrifuged for 10 minutes at 8000 rpm and the pellet is suspended in 4-6 mL of fresh enzyme solution and plated onto 4-6 100 mm flasks with vented caps. The cells are then allowed to grow to confluence and split using 0.25% trypsin. The cells are evaluated for purity and overall quality using antibody to SMC actin.
The cells are assayed in early passage (generally passage 3-7) at sub-confluent conditions. Cultures are grown in 16 mm (24 well) multi-well culture dishes in media 199 supplemented with 10% fetal bovine serum and 2% antibiotic/antimycotic. At subconfluence, the cells are placed in a defined serum free, lymphocyte medium (AIM-V; Gibco) for 24-48 hours prior to initiating the experimental protocol.
The standard test procedure is initiated by addition of the test compound, ^3H thymidine and serum or a specific growth factor to the serum deprived synchronized cells. Growth factor and serum stimulations are optimized for each cell type. The test compounds are added to each well at 50 fold dilution (20 μL/well) and the plates are incubated for 24-36 hours at 37° C. in 5% CO2 atmosphere. Test compounds are dissolved in 50% ethanol and assayed at 1, 10, and 100 μM. As a control, RG 50872 (Bilder, G. A.; et al., Am. J. Cell Physiol., 1991; 260: C721) is routinely assayed under the conditions of each cell preparation at a concentration of 5 μM.
At the completion of the experiment, the plates are placed on ice, washed three times with ice cold PBS and incubated in ice cold 10% trichloroacetic acid (TCA) for 30 minutes to remove acid soluble proteins. Each solution is transferred to a scintillation vial containing 0.4N HCl (500 μL/vial to neutralize NaOH) and each well is rinsed two times with water […].
Data is quantitated by subjecting the vials to a scintillation counter, in triplicate, for both control and experimental samples. Control (100%) data is obtained from maximally stimulated cells, as the result of growth factor or serum stimulation. Experimental data is obtained from cells maximally stimulated with growth factor or serum and treated with a test compound. (The platelet-derived growth factor used in the assay was human recombinant PDGF-AB purchased from Upstate Biotechnology Inc., Lake Placid, N.Y.). Data is expressed as a percent of control from which IC50s are determined.

[2] = Cytotoxicity, commercial modification of the MTT assay; type: cell-based, porcine; parameters: dose or concentration left out as unconfirmed; conditions: pig
Procedure: To distinguish cytotoxicity from the ability of a compound to prevent proliferation, the test compounds were examined using a commercial modification of the MTT assay. Briefly, cells were grown in 24 well plates to 70-80% confluency. The cells were serum deprived for 24-48 hours prior to initiation of the experimental protocol. To insure that the MTT assay monitored toxicity rather than proliferation, the cells were incubated with […] test compound in fresh medium without serum for 24 hours at 37° C. in a humidified CO2 incubator. Upon completion of the compound treatment, MTT indicator dye was added for 4 hours a 37° C. Cells were then solubilized and aliquots from each will were transferred to a 96-well plate for analysis. Absorbance at 570 nm wavelength with a reference wavelength of 630 nm was recorded using an ELISA plate reader. Results are reported as percent viable using no drug (100% viable) and pre-solubilization (0% viable) standards.

[3] = Sus scrofa, serum-stimulated, serum deprived synchronized cells, read-out: Porcine Smooth Muscle Cell Antiproliferation IC50 or % Inhibition at x Concentration, Serum
[4] = Sus scrofa, stimulated with human recombinant PDGF-AB, read-out: Porcine Smooth Muscle Cell Antiproliferation IC50 or % Inhibition at x Concentration, PDGF
[5] = serum-stimulated, serum deprived synchronized cells, read-out: Porcine Smooth Muscle Cell Antiproliferation IC50 or % Inhibition at x Concentration, Serum
[6] = stimulated with human recombinant PDGF-AB, read-out: Porcine Smooth Muscle Cell Antiproliferation IC50 or % Inhibition at x Concentration, PDGF

SMILES | IC50 [1, 3] | IC50 [1, 4] | viability at 24 h [2] | IC50 [1, 5] | IC50 [1, 6] | melting point
COC(=O)c1ccc(Cn2c(C=Cc3ccc(OC)c(OC)c3)nc3c(OC)c(C)c(C)c(OC)c32)cc1 [Example 8, 4-{2-[2-(3,4-Dimethoxyphenyl)-vinyl]-4,7-dimethoxy-5,6-dimethyl-benzoimidazol-1-ylmethyl}-benzoic acid methyl ester] | 0.915 to 10.2 µM | 0.622 µM | 80% |  |  | 
COc1ccc(C=Cc2nc3c([nH]2)C(=O)C(C)=C(C)C3=O)cc1OC [Example 9, 2-[2-(3,4-Dimethoxyphenyl)-vinyl]-5,6-dimethyl-1-benzoimidazol-4,7-dione] |  |  |  | 14.5 µM | 0.858 µM | 
COc1ccc2[nH]c(C=Cc3ccc(OC)c(OC)c3)nc2c1 [Example 2, 2-[2-(3,4-Dimethoxyphenyl)-vinyl]-5-methoxy-1H-benzoimidazole] | 11.4 µM | 3.48 µM | 100% |  |  | 
COC(=O)c1ccc2[nH]c(/C=C/c3ccc(OC)c(OC)c3)nc2c1 [Example 5, (E)-2-[2-(3,4-Dimethoxyphenyl)-vinyl]-1H-benzoimidazole-5-carboxylic acid methyl ester] | 1.2 µM | 6.12 µM | 100% |  |  | 185 to 188 °C
COC(=O)c1ccc(Cn2c(C=Cc3ccc(OC)c(OC)c3)nc3c(OC)c(C)c(C)c(OC)c32)cc1 (hydrate or solvate) [Example 8, 4-{2-[2-(3,4-Dimethoxyphenyl)-vinyl]-4,7-dimethoxy-5,6-dimethyl-benzoimidazol-1-ylmethyl}-benzoic acid methyl ester] |  |  |  |  |  | 111 to 114 °C
COc1ccc(/C=C/c2nc3ccccc3[nH]2)cc1OC [Example 1, (E)-2-[2-(3,4-Dimethoxyphenyl)-vinyl]-1H-benzoimidazole] | 5.91 µM | 4.1 µM | 100% |  |  | 
O=[N+]([O-])c1ccc2[nH]c(/C=C/c3ccncc3)nc2c1 [Example 10, (E)-5-Nitro2-(2-pyridin-4-yl-vinyl)-1H-benzoimidazole] | 8.36 µM | 0.62 µM | 45% |  |  | 
COc1ccc(C=Cc2nc3cc(C(=O)c4ccccc4)ccc3[nH]2)cc1OC [Example 3, {2-[2-(3,4-Dimethoxyphenyl)-vinyl]-1H-benzoinmidazol-5-yl}-phenyl-methanone] |  |  |  | 7.6 µM | 0.324 to 0.801 µM | 
COc1ccc(/C=C/c2nc3cc([N+](=O)[O-])ccc3[nH]2)cc1OC [Example 7, (E)-2-[2-(3,4-Dimethoxyphenyl)-vinyl]-5-nitro-1H-benzoimidazole] | 0.567 to 1.9 µM | 1.49 µM | 100% |  |  | 223 to 225 °C
O=[N+]([O-])c1ccc2[nH]c(/C=C/c3ccoc3)nc2c1 [Example 11, (E)-2-(2-Furan-3-yl-vinyl)-5-nitro-1H-benzoimidazole] |  |  |  |  |  | 230 to 233 °C
COc1ccc2[nH]c(C=Cc3ccc(OC)c(OC)c3)nc2c1 (as salt: hydrochloride) (hydrate or solvate) [Example 2, 2-[2-(3,4-Dimethoxyphenyl)-vinyl]-5-methoxy-1H-benzoimidazole] |  |  |  |  |  | 246 to 249 °C
COc1ccc(/C=C/c2nc3cc(C(=O)O)ccc3[nH]2)cc1OC [Example 6, (E)-2-[2-(3,4-Dimethoxyphenyl)-vinyl]-1H-benzoimidazole-5-carboxylic acid] | 2.26 µM | 7.49 µM | 100% |  |  | 
COc1ccc(C=Cc2nc3c(OC)c(C)c(C)c(OC)c3[nH]2)cc1OC [Example 4, 2-[2-(3,4-Dimethoxyphenyl)-vinyl]-4,7-dimethoxy-5,6-dimethyl-1H-benzoimidazole] | 1.28 µM | 1.5 µM | 100% |  |  | 116 to 119 °C
